# Target: T1, FabK (Streptococcus pneumoniae, UniProt Q9FBC5)
# T1 sequence (Q9FBC5 1-324): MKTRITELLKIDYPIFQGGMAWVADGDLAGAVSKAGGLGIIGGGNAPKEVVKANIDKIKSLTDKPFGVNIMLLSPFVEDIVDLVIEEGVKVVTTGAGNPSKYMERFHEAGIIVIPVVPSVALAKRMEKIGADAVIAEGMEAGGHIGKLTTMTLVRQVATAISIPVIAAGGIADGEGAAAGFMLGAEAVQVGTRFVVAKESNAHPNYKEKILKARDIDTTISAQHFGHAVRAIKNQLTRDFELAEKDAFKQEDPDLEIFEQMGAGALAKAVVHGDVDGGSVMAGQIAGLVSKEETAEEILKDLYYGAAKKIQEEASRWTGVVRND
# Test: FabK Enzyme Inhibition Assay
# Type: biochemical
# Method: FabK catalyses the reduction of enoyl-ACPs with the concomitant oxidation of NADH. The reduction of crotonoyl-ACP to butyryl-ACP can be monitored by following the change in absorbance at 340 nm as NADH is oxidized.
# Assays were carried out in Costar 3696 half-area plates in a final assay volume of 150 uL on a Spectramax platereader. The substrates (NADH and crotonoyl-ACP) were incubated with FabK enzyme in 100 mM N-[2-acetamido]-2 iminodiacetic acid (ADA), pH 6.5, 100 mM NH4Cl, 4% glycerol at 30° C. and the reaction was monitored at 340 nm.
# Using the above assay, compounds were tested for inhibition of FabK. 30 uL of inhibitor was added to a well of the plate. 30 uL of a 250 uM stock of NADH and 60 uL of a 67.5 uM stock of crotonoyl ACP were then added to the well. The plate was incubated at 30° C. for 5 min. The reaction was initiated by adding 30 uL of a 6.25 nM stock of enzyme to the well (also pre-incubated at 30° C.). The reaction was then monitored at A340 nm for 30 min at 30° C. Positive controls were reactions without compound. Negative controls were reactions without enzyme and without compound. Final concentrations in the assay mixture were 25 uM crotonoyl-ACP, 50 uM NADH, and 1.25 nM enzyme.
# IC50s were determined for compounds by carrying out the assay at 8 different concentrations of compound (100 uM-0.75 uM) in duplicate. The IC50 was calculated using Grafit software (v 4.09). […]
smiles,measurement,value
"CN(Cc1cn(C)c2ccccc12)C(=O)/C=C/c1cnc2c(c1)CCC(=O)N2 [Example 62, (E)-N-methyl-N-(1-methyl-1H-indol-3-ylmethyl)-3-(7-oxo-5,6,7,8-tetrahydro-1,8-naphthyridin-3-yl)acrylamide]",Fab K inhibition (result in words),dual Fab I/Fab K inhibitors

# Source: patent US7790716B2, “Fab I inhibitors” (Affinium Pharmaceuticals, Inc., priority 1999, dated 2010)
